From paper PMC12027554, “Inhibition of ABCG2 by SCO-101 Enhances Chemotherapy Efficacy in Cancer” (International Journal of Molecular Sciences, 2025)

Legend:
HT29SN-38 cells = experiment: 3H-SN-38 uptake in cell monolayers; type: cell-based, human; conditions: HT29SN-38 monolayers
Description: Cells were seeded at a density of 1.8 × 10^4 cells/well in 96-well plates and sub-cultured for 48 h. Drugs were dissolved in HBSS transport buffer (HBSS, 0.05% BSA, 10 mM HEPES, pH 7.4) at different concentrations. All treatments were investigated in technical triplicates. On the day of the experiments, the culture medium was exchanged with 100 μL transport buffer and cells incubated for 15 min at 37 °C. Next, the blank transport buffer was exchanged with 50 μL transport buffer containing the different compounds (2X of final concentrations) and incubated for an additional 15 min at 37 °C. The uptake experiment was started by adding 50 μL of 2 μCi/mL ^3H-SN38 and stopped after 15 min of incubation at 37 °C by removing the transport buffer from all wells. Cell monolayers were washed twice by adding/removing ice-cold transport buffer and lysed for 15 min at RT in 100 μL 0.1% TritonX-100. Cell lysates were transferred to scintillation vials containing 2 mL of scintillation fluid (Ultima Gold, PerkinElmer). Each well was washed with 100 μL purified water (milliQ), which was also transferred to respective scintillation vials. The radioactivity in each scintillation vial was measured by means of scintillation counting (Tri-Carb 2910 TR, PerkinElmer, Waltham, MA, USA).

ABCG2 = molecular target: T1, ABCG2 (Homo sapiens, UniProt Q9UNQ0); experiment: Bidirectional transport of estrone-3-sulfate across Caco-2 cell monolayers; type: cell-based; conditions: Caco-2 monolayers, 50 µM SCO-101
T1 sequence (Q9UNQ0 1-655): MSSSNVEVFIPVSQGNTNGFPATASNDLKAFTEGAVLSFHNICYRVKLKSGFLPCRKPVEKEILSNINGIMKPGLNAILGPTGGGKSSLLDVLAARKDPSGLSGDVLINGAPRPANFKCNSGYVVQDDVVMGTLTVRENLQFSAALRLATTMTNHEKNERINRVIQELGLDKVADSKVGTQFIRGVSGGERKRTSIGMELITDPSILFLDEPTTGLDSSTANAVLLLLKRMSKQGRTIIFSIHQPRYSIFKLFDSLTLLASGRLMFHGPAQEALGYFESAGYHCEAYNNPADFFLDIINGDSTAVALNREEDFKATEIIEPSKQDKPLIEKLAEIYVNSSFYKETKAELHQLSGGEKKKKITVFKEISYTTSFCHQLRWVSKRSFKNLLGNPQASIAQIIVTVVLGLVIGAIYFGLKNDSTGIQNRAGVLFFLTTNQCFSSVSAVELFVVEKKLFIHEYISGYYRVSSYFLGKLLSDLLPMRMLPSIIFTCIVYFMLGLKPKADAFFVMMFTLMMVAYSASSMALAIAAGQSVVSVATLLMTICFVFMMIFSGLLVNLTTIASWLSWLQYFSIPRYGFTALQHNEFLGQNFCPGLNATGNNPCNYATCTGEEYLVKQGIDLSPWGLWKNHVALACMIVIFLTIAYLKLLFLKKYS
Description: (§1) Bidirectional transport experiments (basolateral-to-apical and apical-to-basolateral) with the ABCG2 substrate estrone-3-sulfate and the MDR1/ABCB1 substrate digoxin were performed in Caco-2 cell monolayers as previously described.

[1] = set-up: method as in earlier work; conditions: oral SCO-101 in combination with FOLFIRI; cited from earlier work
PANC-1MX100 cells = experiment: Cell viability assay, mitoxantrone-resistant PANC-1; type: cell-based, human; conditions: SCO-101 20 µM, 72 h
Description: (§2) Cells were seeded at a density of 0.2–1 × 10^4 cells/well into 96-well plates. One day after seeding, treatments were performed in triplicate for 72 h, or as otherwise indicated in the relevant panel/figure legend and kept at 37 °C/5% CO2. Growth medium alone (“untreated” cells) or DMSO was used as a control.
For MTT assays, media were replaced at the final timepoint with 100 μL of 1:10 MTT reagent (0.5 mg/mL in PBS) diluted in growth medium, and plates were incubated for 3 h. A total of 100 μL/well of stop buffer (50 g Sodium Dodecyl Sulfate, 245 mL ddH2O, 5 mL 1N HCl) was added and plates incubated for 24 h to let colored formazan crystals develop. Optical densities (ODs) were measured with a PowerWave^TM Microplate spectrophotometer (BioTek, Winooski, VT, USA) at 570 nm and 670 nm (background).
Background values were subtracted prior to further analysis. The percentage of cell viability was expressed as relative values versus untreated cells as determined by the various assays. EC50/IC50 values were calculated using GraphPad Prism (v10.4.1) and the in-built non-linear regression [log (inhibitor) vs. response—variable slope (four parameters)] calculation. For determination of synergy scores, the online tool SynergyFinder+ (https://synergyfinder.org access date 15 February 2025) was employed following 4 × 4- or 6 × 6-matrix dose-escalation cell viability experiments. […]

[2] = molecular target: other members of the UGT family; experiment: Inhibition of glucuronidation activity of other UGT family enzymes; type: biochemical; conditions: Figure S3F
MDR1/ABCB1 = MDR1/ABCB1 (Homo sapiens, UniProt P08183); experiment: Bidirectional transport of digoxin across Caco-2 cell monolayers; type: cell-based; set-up: endogenous in cells; host or cells: Caco-2; conditions: Caco-2 monolayers, 50 µM SCO-101
Description: as §1

SCH cells = experiment: Cell viability assay (CellTiter-Glo), SCH; type: cell-based; conditions: 96 h
Description: as §2
For SCH, SNU-5, and MKN45 cells, 50 μL of CellTiter-Glo® Reagent (Promega; Madison, WI, USA) was added to each well at the end of the treatments. The content was mixed for 5 min to facilitate cell lysis and plates incubated at room temperature for 10 min to stabilize luminescent signals, which were then recorded using an EnVision Multi Label Reader (PerkinElmer; Waltham, MA, USA).
Background values were subtracted prior to further analysis. The percentage of cell viability was expressed as relative values versus untreated cells as determined by the various assays. EC50/IC50 values were calculated using GraphPad Prism (v10.4.1) and the in-built non-linear regression [log (inhibitor) vs. response—variable slope (four parameters)] calculation. […] Synergy scores were calculated using the ZIP model, which takes the advantages of both the Loewe additivity and the Bliss independence models, aiming at a systematic assessment of various types of drug interaction patterns that may arise in a high-throughput drug combination screening.

Sequence of MDR1/ABCB1 (P08183 whole entry): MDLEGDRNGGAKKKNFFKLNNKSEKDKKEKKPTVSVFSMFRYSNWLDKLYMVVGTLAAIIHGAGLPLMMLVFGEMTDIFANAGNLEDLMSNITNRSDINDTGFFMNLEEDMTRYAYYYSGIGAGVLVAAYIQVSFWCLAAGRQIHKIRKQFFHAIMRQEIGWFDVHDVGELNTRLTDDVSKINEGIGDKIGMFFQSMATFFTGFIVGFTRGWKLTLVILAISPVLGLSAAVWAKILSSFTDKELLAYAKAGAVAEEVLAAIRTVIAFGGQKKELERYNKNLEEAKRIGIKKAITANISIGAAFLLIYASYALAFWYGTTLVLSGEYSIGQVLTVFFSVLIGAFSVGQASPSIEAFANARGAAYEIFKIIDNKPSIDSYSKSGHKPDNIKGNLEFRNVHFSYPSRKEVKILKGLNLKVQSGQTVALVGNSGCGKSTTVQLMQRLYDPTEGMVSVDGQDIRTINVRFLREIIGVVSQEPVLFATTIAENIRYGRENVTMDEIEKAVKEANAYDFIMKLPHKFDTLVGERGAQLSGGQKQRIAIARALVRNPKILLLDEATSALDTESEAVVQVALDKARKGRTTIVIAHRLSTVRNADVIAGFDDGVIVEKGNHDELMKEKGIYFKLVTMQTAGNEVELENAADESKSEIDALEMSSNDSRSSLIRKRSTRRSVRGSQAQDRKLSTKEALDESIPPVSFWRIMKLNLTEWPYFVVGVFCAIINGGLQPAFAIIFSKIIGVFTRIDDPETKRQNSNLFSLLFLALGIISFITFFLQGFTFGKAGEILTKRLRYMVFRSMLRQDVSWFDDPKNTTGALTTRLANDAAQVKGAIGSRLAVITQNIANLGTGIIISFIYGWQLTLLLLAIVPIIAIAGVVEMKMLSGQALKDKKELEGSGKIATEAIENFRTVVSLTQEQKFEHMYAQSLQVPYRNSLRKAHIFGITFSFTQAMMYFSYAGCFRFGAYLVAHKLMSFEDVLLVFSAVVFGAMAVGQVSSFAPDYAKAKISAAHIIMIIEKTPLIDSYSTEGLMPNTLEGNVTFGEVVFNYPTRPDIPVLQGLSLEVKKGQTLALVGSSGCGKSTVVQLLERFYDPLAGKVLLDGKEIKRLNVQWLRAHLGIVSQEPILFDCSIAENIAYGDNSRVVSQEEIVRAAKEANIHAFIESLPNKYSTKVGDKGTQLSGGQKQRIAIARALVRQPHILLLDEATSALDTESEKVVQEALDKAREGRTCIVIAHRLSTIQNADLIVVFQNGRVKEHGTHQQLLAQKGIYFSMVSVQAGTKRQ

- EC50 (HT29SN-38 cells; Homo sapiens, read-out: EC50, 3H-SN-38 uptake (regarded as IC50 of ABCG2 inhibition)): 6.4 µM
- basolateral-to-apical transport of the ABCG2 substrate estrone-3-sulfate (ABCG2): completely blocked
- IC50 for other members of the UGT family compared with UGT1A1 [2]: higher IC50 values
- transport of the MDR1/ABCB1 substrate digoxin (MDR1/ABCB1): only a limited difference
SMILES: O=C(Nc1cc(C(F)(F)F)cc(C(F)(F)F)c1)Nc1ccc(Br)cc1-c1nnn[nH]1 [SCO-101, N-[4-Bromo-2-(1H-1,2,3,4-tetrazol-5-yl)phenyl]-N′-[3,5-bis(trifluoromethyl)phenyl]urea]
- cellular accumulation of 3H-SN-38 (HT29SN-38 cells; SCO-101 25 µM, Ko-143 0.5 µM, ZSQ 0.5 µM, vs control (HBSS)): greater than those of Ko-143-treated cells
- safety [1]: safe
- cell viability, SCO-101 combined with mitoxantrone or SN-38 (PANC-1MX100 cells): re-sensitized
- IC50 (SCH cells): > 50 µM
